Measurements: patent US20220053773A1 (priority 2018, published 2022)
≈ marks a conversion by molar mass, not a printed value. Read-outs that look alike come from different tables or passages of the source. Bridge positions count the residues as written; N and C are the ends. Ends that are not written are not given here. Peptide text beside a SMILES is read from it.

Assays:
[1] = system: E. coli ATCC 25922; details: for MIC-E. coli (μM) 25922: Table 6; for MIC-E.Coli (μM) 25622: Table 9 lower part, c1
[2] = system: Pseudomonas WT 27853; details: for MIC-human (μm) Pseudomonas WT 27853: Table 9 lower part, c5
[3] = system: Salmonella; details: for MIC-human (μm) Salmonella: Table 9 lower part, c4
[4] = system: X. fastidiosa (Xf) in infected grapevines; details: in vivo
[5] = system: Xanthomonas Perforans BAA983
[6] = system: Pseudomonas Resistant BAA-2114
[7] = system: Xanthomonas Euvesicatoria 11633
[8] = system: X. fastidiosa (PD strain)
[9] = system: E.Coli 14028; details: Table 9 lower part, c2
[10] = system: N. benthamiana mesophyll protoplasts
[11] = system: HL60 cells
[12] = system: human erythrocytes
[13] = system: human cells (red blood cells, immune cells HL-60, lung/skin epithelial cells)
[14] = system: human and plant gram-negative bacteria
[15] = system: P11-resistant E. coli ATCC 25922
[16] = system: P11-resistant E. coli BL21
[17] = system: E. coli BL21; details: Table 3, BL21-WT
[18] = system: E. coli K12; details: Table 3, K12-WT
[19] = system: P11-resistant E. coli K12; details: Table 3, K12-R

HPLIKLIKKILKKGPGRKKLIKKILKILGH [Peptide 30P1]
MIC-E. coli (μM) 25922 [1]: 0.9 to 1.25 µM

KLIKLIKKILKKGPGRKKLIKKILKILK [Peptide 28P4]
MIC-human (μm) Pseudomonas WT 27853 [2]: 1.3 µM
MIC-human (μm) Salmonella [3]: 1.3 µM
% Xf clearance from bark by qPCR [4]: completely clear
% Xf clearance from green leaves by qPCR [4]: completely clear
MIC-E. coli (μM) 25922 [1]: 2.1 µM
MIC-E.Coli (μM) 25622 [1]: 2.1 µM
MIC-plant (μm) Xanthomonas Perforans BAA983 [5]: 2.5 µM
MIC-human (μm) Pseudomonas Resistant BAA-2114 [6]: 2.5 µM
MIC-plant (μm) Xanthomonas Euvesicatoria 11633 [7]: 2.5 µM
MIC (μM) X. fastidiosa (PD strain) [8]: 3.0 ± 0.1 µM

KRLIQRKRLIQRGPGRKRLIQRKRLIQR [Peptide 28P3]
MIC-human (μm) Pseudomonas WT 27853 [2]: >20 µM
MIC-human (μm) Salmonella [3]: >20 µM
MIC-E. coli (μM) 25922 [1]: >40 µM
MIC-E.Coli (μM) 25622 [1]: >40 µM
MIC-plant (μm) Xanthomonas Perforans BAA983 [5]: 20 µM
MIC-human (μm) Pseudomonas Resistant BAA-2114 [6]: >20 µM
MIC-plant (μm) Xanthomonas Euvesicatoria 11633 [7]: 20 µM

CC[C@H](C)[C@H](NC(=O)[C@H](CCCCN)NC(=O)[C@H](CC(C)C)NC(=O)[C@@H](NC(=O)[C@H](CCCCN)NC(=O)[C@H](CCCCN)NC(=O)[C@@H](NC(=O)[C@H](CC(C)C)NC(=O)[C@H](CCCCN)NC(=O)[C@@H](N)CCCCN)[C@@H](C)CC)[C@@H](C)CC)C(=O)N[C@@H](CC(C)C)C(=O)NC [Peptide 11P3, KKLIKKILKIL-(NHCH3)] (H-KKLIKKILKIL-NHMe)
MIC-E. coli (μM) 25922 [1]: 3.7 ± 0.5 µM (≈ 5 µg/mL)

KEIVRRIKEFLRGPGRKEIVRRIKEFLR [Peptide 28P7]
MIC-human (μm) Pseudomonas WT 27853 [2]: 5 to 10 µM
MIC-E. coli (μM) 25922 [1]: 4.3 µM
MIC-E.Coli (μM) 25622 [1]: 4.3 µM
MIC-E.Coli (μM) 14028 [9]: 20 µM
MIC-plant (μm) Xylela fastidiosa (grape) [8]: 2.5-5(2) μM

CC[C@H](C)[C@H](NC(=O)[C@H](CCCCN)NC(=O)[C@H](CC(C)C)NC(=O)[C@@H]1CSSC[C@H](NC(=O)[C@H](CC(C)C)NC(=O)[C@H](CCCCN)NC(=O)[C@@H](NC(=O)[C@@H](N)CC(C)C)[C@@H](C)CC)C(=O)N[C@@H](CCCCN)C(=O)N[C@@H](CCCCN)C(=O)N[C@@H]([C@@H](C)CC)C(=O)N[C@@H](CC(C)C)C(=O)N[C@@H](CCCCN)C(=O)N[C@@H](CCCCN)C(=O)NCC(=O)N2CCC[C@H]2C(=O)NCC(=O)N[C@@H](CCCNC(=N)N)C(=O)N[C@@H](CCCCN)C(=O)N[C@@H](CCCCN)C(=O)N[C@@H](CC(C)C)C(=O)N[C@@H]([C@@H](C)CC)C(=O)N[C@@H](CCCCN)C(=O)N[C@@H](CCCCN)C(=O)N1)C(=O)N[C@@H](CC(C)C)C(=O)O [CYS26P] (H-LIKLCKKILKKGPGRKKLIKKCLKIL-OH; disulfide 5-22)
MIC-human bacteria (μM) Pseudomonas WT ([2]; Table 9 upper part, c6): >20 µM
MIC-human bacteria (μM) Salmonella ([3]; Table 9 upper part, c5): >20 µM
phytotoxicity, viability of N. benthamiana mesophyll protoplasts [10]: low phytotoxcicity
MIC-E. coli (μM) 25922 [1]: 4.3 ± 0.4 µM (≈ 12.9 µg/mL)
toxicity to HL60 cells [11]: did not demonstrate toxicity
toxicity to human erythrocytes [12]: did not demonstrate toxicity
MIC (μM) X. fastidiosa (PD strain) [8]: >20 µM

CC[C@H](C)[C@@H]1NC(=O)[C@H](CCCCN)NC(=O)[C@H](CC(C)C)NC(=O)[C@H]([C@@H](C)CC)NC(=O)[C@H](CCCCN)NC(=O)[C@H](CCCCN)NC(=O)[C@H]([C@@H](C)CC)NC(=O)[C@H](CC(C)C)NC(=O)[C@H](CCCCN)NC(=O)[C@H](CCCCN)NC(=O)[C@H](CCCNC(=N)N)NC(=O)CNC(=O)[C@@H]2CCCN2C(=O)CNC(=O)[C@H](CCCCN)NC(=O)[C@H](CCCCN)NC(=O)[C@H](CC(C)C)NC(=O)[C@H]([C@@H](C)CC)NC(=O)[C@H](CCCCN)NC(=O)[C@H](CCCCN)NC(=O)[C@H]([C@@H](C)CC)NC(=O)[C@H](CC(C)C)NC(=O)[C@H](CCCCN)NC(=O)[C@H]([C@@H](C)CC)NC(=O)[C@H](CC(C)C)NC(=O)[C@H](CCCNC(=N)N)NC(=O)CNC(=O)[C@@H]2CCCN2C(=O)CNC(=O)[C@H](CC(C)C)NC1=O [CYCLIC30P] (cyclo(GPGRKKLIKKILKILGPGRLIKLIKKILKK))
MIC-E. coli (μM) 25922 [1]: 12 (2) μM
MIC-E.Coli (μM) 25622 [1]: 12(2) μM

KRIVQRIKDFLRGPGRKRIVQRIKDFLR [Peptide 28P2]
MIC-E. coli (μM) 25922 [1]: 6 (2) μM
MIC-E.Coli (μM) 25622 [1]: 6(2) μM
concentration toxic to human cells [13]: above 20 μM
MIC against one E. coli strain [14]: 6 µM
MICs for human and plant bacteria [14]: 1.3 to 3 µM

KKLIKKILKIL [Peptide P11, KKLIKKILKIL]
MIC [15]: 192 ± 8.3 µM
MIC values ATCC [15]: 200 µM
MIC (μM) X. fastidiosa (PD strain) [8]: 10 to 20 µM
MIC [16]: 194 ± 12.5 µM
MIC values BL21 ([16]; BL21): 194 µM

LIKLIKKILKKGPGRKKLIKKILKIL [Peptide P26]
MIC [17]: 1.95 ± 0.3 µM
phytotoxicity, viability of N. benthamiana mesophyll protoplasts [10]: low phytotoxcicity
MIC ([1]; Table 3, ATCC-WT): 1.65 ± 0.3 µM
MIC-E. coli (μM) 25922 [1]: 1.7 ± 0.2 µM
MIC [18]: 1.65 ± 0.3 µM
MIC [19]: 4.0 ± 0.6 µM
MIC [15]: 9.5 ± 0.7 µM
toxicity to HL60 cells [11]: did not demonstrate toxicity
toxicity to human erythrocytes [12]: did not demonstrate toxicity
MIC (μM) X. fastidiosa (PD strain) [8]: 4.75 ± 0.25 µM
MIC-plant bacteria (μM) Xylela fastidiosa (grape) [8]: >20 µM
MIC ([16]; BL21): 4.4 ± 0.3 µM

KEIVRRIEKFLRGPGRKRIVERIEKFLR [Peptide 28P8]
MIC-human (μm) Pseudomonas WT 27853 [2]: 5 to 10 µM
MIC-E. coli (μM) 25922 [1]: 0.8 ± 0.1 µM
MIC-E.Coli (μM) 14028 [9]: 5 to 10 µM
MIC-plant (μm) Xylela fastidiosa (grape) [8]: 1.25-2.5(2) μM

RKQLRELIERLLERIRKLGPGRREQLERLIERLERLIEKR [Peptide 40P3]
MIC-E. coli (μM) 25922 [1]: >20 µM

KLIRLIREILRRGPGRRRLIREILRILK [Peptide 28P6]
MIC-human (μm) Pseudomonas WT 27853 [2]: 5 to 10 µM
MIC-E. coli (μM) 25922 [1]: 4.8 µM
MIC-E.Coli (μM) 25622 [1]: 4.8 µM
MIC-E.Coli (μM) 14028 [9]: 20 µM
MIC-plant (μm) Xylela fastidiosa (grape) [8]: 2.5-5(2) μM

LIRLLRRILRRGPGRRRLIRRLLRIL [Peptide 26P3]
MIC-plant bacteria (μM) Xylela fastidiosa (grape) [8]: 4.8 µM

EALRSRLEKRIYILYRDTPVVKSSSRQREELLRISLRELE [Peptide 40P1]
MIC-E. coli (μM) 25922 [1]: >20 µM

ELLRRLLASLRRHDLLRGPGRELLRLLASLRRHDLLR [Peptide 38P1]
MIC-E. coli (μM) 25922 [1]: 2.5 to 5 µM

LIRLIRRILRRGPGRRRLIRRILRIL [Peptide 26P2]
MIC-E. coli (μM) 25922 [1]: 1.3 to 2.5 µM

CC[C@H](C)[C@H](NC(=O)[C@H](CCCNC(=N)N)NC(=O)[C@H](CC(C)C)NC(=O)[C@@H](NC(=O)[C@H](CCCNC(=N)N)NC(=O)[C@H](CCCNC(=N)N)NC(=O)[C@@H](NC(=O)[C@H](CC(C)C)NC(=O)[C@H](CCCNC(=N)N)NC(=O)[C@@H](N)CCCNC(=N)N)[C@@H](C)CC)[C@@H](C)CC)C(=O)N[C@@H](CC(C)C)C(=O)NC [Peptide 11P5, RRLIRRILRIL-(NCH3)] (H-RRLIRRILRIL-NHMe; N-terminus and C-terminus assumed)
MIC-E. coli (μM) 25922 [1]: 6.7 ± 0.9 µM (≈ 9.99 µg/mL)

KKLIKKILKILGPGRKKLIKEILKILGPGRKKLIKKILKIL [Peptide 41P1]
MIC-E. coli (μM) 25922 [1]: 4.50 ± 0.25 µM

RLLEKRLRRELERELRKQGPGRRLLEKRLRRELERELRKQ [Peptide 40P2]
MIC-E. coli (μM) 25922 [1]: >20 µM

LIRLIRRILRRGPGRRRLIRRILRIL [Peptide 26P-1]
MIC values ATCC [15]: 10 µM
MIC (μM) X. fastidiosa (PD strain) [8]: 4.75 µM
MIC values BL21 ([16]; BL21): 4 µM
